Data: US4782159A, “Process for preparing beta-methyl-gamma-oxo-4-(4-oxo-1(4H)-pyridinyl) derivative of benzene butanoic acid” (Smith Kline & French Laboratories Limited, priority 1986, dated 1988)
Entries after “also recorded” stand apart in the source; their conditions may differ.

What was measured:
PDE (Peak III) [1] = target: T1, PDE (Peak III) (Felis catus, UniProt A0ABI7YEY2); assay: Inhibition of Phosphodiesterases, PDE (Peak III)
T1 sequence (A0ABI7YEY2 1-1144): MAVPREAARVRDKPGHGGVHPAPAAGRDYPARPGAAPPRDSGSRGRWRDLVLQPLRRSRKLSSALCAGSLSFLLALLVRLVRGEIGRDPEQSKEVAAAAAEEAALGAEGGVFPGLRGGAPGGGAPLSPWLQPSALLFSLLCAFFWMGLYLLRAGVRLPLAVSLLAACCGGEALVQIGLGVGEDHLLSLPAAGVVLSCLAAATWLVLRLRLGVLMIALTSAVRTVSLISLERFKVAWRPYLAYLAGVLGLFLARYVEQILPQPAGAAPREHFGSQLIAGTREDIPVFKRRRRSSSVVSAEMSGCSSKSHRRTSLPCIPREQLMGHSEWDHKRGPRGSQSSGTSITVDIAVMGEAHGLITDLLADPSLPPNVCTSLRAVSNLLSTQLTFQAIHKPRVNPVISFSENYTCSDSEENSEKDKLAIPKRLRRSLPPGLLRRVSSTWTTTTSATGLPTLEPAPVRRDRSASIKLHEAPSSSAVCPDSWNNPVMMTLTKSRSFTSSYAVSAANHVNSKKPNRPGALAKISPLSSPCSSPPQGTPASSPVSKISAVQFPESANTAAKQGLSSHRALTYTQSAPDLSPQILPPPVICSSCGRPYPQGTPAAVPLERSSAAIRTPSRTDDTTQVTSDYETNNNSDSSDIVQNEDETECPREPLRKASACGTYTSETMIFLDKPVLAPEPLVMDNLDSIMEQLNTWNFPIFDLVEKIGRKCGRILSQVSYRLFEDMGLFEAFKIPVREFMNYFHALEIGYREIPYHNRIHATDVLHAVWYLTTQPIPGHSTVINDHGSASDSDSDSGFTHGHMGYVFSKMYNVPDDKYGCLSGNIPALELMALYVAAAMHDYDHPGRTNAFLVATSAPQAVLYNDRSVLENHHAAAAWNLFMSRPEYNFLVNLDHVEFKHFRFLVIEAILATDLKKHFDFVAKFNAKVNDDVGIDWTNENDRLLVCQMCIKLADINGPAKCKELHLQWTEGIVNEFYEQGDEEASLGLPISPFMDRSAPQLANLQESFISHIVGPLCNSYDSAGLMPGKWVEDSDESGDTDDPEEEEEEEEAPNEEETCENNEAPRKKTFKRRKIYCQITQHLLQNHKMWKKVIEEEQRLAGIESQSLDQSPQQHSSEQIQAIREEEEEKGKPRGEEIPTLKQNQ
Procedure: (§2) The enzyme was assayed by incubation at 37° for 4-30 min in 50 mM Tris, 5 mM MgCl2, pH 7.5 with [3-H] cyclic nucleotide (4×10^5 disintegrations min^-1) and [14-C] nucleotide 5' monophosphate (3×10^3 disintegrations min^-1). The assay was stopped by boiling, and the [3-H] […] The reaction mixture was diluted with 0.5 ml 100 mM HEPES (N-2-Hydroxyethylpiperazine-N'-2-ethanesulfonic acid), 100 mM NaCl, pH 8.5, and applied to the column. […] The recovery of product as judged by [14-C] recovery was approximately 80%. All assays were linear with time of incubation and concentration of enzyme over the range used in these experiments.

[2] = test system: left ventricular dp/dt max; assay: Cardiac Stimulant Activity--In vivo (Conscious Dogs); set-up: species or system dog
Procedure: The compound of formula (2) increased left ventricular dp/dt max in conscious dogs after intravenous administration at doses below 0.02 mg/kg. Oral administration caused positive inotropic responses at doses of 0.05 mg/kg and below.

PDE (Peak III) [3] = target: T1, PDE (Peak III); assay: Substrate kinetics of PDE (Peak III) from cat heart; type: biochemical; set-up: DEAE-Sepharose Peak III from high-speed supernatant of cat heart homogenate
Procedure: as §2

PDE (Peak I) [4] = assay: Substrate kinetics of PDE (Peak I) from cat heart; type: biochemical; settings: for Relative Vmax: PDE (Peak I)
PDE (Peak II) [5] = target: T2, PDE (Peak II) (Felis catus, UniProt A0ABI7ZLD2); assay: Substrate kinetics of PDE (Peak II) from cat heart; type: biochemical
T2 construct: DEAE-Sepharose CL-6B Peak II of cat heart high-speed supernatant
T2 sequence (A0ABI7ZLD2 1-921): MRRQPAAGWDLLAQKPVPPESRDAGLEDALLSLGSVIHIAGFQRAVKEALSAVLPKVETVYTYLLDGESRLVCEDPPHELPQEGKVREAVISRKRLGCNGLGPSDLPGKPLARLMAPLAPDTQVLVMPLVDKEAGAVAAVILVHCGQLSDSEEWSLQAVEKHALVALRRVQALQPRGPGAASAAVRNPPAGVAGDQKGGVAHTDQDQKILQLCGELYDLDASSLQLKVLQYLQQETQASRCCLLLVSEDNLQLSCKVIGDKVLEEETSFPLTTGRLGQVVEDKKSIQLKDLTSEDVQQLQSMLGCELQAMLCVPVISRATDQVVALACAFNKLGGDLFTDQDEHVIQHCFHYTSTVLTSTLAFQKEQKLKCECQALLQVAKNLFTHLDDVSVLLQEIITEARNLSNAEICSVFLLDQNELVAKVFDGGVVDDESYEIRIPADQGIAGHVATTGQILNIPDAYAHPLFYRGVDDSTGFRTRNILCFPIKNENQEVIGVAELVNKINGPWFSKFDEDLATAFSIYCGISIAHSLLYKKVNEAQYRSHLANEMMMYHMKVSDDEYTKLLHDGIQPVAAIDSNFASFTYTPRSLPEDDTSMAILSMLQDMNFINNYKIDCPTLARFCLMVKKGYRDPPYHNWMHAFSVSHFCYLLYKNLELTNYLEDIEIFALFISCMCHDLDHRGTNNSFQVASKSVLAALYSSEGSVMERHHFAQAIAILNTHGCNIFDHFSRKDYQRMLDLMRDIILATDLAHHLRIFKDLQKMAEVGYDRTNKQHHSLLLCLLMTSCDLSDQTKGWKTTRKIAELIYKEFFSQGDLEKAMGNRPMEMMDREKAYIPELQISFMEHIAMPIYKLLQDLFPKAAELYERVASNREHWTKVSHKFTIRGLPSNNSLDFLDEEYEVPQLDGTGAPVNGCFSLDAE
Procedure: as §2

[6] = test system: platelet aggregation induced by the endoperoxide mimetic U44069; assay: Platelet Aggregation Inhibition--In vitro; type: cell-based; settings: U44069 (10 μM), aspirin-treated (100 μM) human platelet rich plasma
Procedure: Platelet rich plasma (PRP) was prepared from whole human blood anti-coagulated with 1/10 volume acid citrate dextrose. The citrated blood was centrifuged at 700 g for 5 minutes and the PRP removed. The remaining red cells and plasma were centrifuged for a further 15 minutes at 900 g and the platelet poor plasma removed. This was then mixed with the PRP to give a final platelet count of 2-3×10^8 cells/ml.
PRP was divided into 0.5 ml aliquots which were preincubated for 2 minutes to 37° C. before being placed in the sample chamber of an HG aggregometer connected to a Teckman chart recorder.
Aspirin was added to a concentration of 100 μM.
Aggregation to the endoperoxide mimetic U44069 (9,11-epoxymethano-PGH2) was then examined in the absence and presence of a range of concentrations of the compound of formula (2).

[7] = test system: left ventricular dp/dt max (index of left ventricular contractility); assay: Cardiac Stimulant Activity--In vivo (Anaesthetised Cats); set-up: species or system cat; settings: intravenous
Excerpt: In anaesthetised cats pretreated with a ganglion blocker (mecamylamine or pempidine) and propranolol, the compound of formula (2) causes increases in left ventricular dp/dt max (this is an index of left ventricular contractility) when administered intravenously.

PDE (Peak II) [8] = target: T2, PDE (Peak II); assay: Inhibition of Phosphodiesterases, PDE (Peak II); type: biochemical, cat
Excerpt: (§1) This specificity is an indication that the compound is likely to have a force/rate selectivity in its cardiac stimulant activity with a low potential for inducing arrythmias.

[9] = test system: histamine-induced bronchoconstriction; assay: Bronchodilatation--In vivo (histamine-induced bronchoconstriction); set-up: species or system guinea-pig, Dunkin Hartley strain; settings: i.v., one minute before histamine challenge
Procedure: Male guinea-pigs of the Dunkin Hartley strain (530 g±6 g) were anaesthetised with Sagatal (pentobarbital sodium) (90 mg/kg i.p.). Airway resistance was measured using a modification of the classical Konzett-Rossler technique (Versuchsanordnung zu Untersuchungen an der Bronchialmuskulatur. Naunyn-Schmiedebergs Arch. Exp. Path. Pharmak., 195: pp 71-74, (1940)). A dose of histamine which gave approximately 150% increase in airway resistance was selected for i.v. administration. Bolus doses of the compound of formula (2) was administered (i.v.) one minute before the histamine challenge.

PDE (Peak I) [10] = assay: Inhibition of Phosphodiesterases, PDE (Peak I); type: biochemical, cat; settings: at up to 10^-4 M
Excerpt: as §1

## Nc1cc(-c2ccncc2)c[nH]c1=O [Amrinone, reference compound]
PDE (Peak III) [1]; PDE (Peak III), 1 μM cyclic AMP
  IC50: 51.8 µM
[2]
  activity in comparison with the compound of formula (2): less active
  duration in comparison with the compound of formula (2): shorter duration

## Nc1nc2c(ncn2[C@@H]2O[C@@H]3COP(=O)(O)O[C@H]3[C@H]2O)c(=O)[nH]1 [cyclic GMP]
PDE (Peak III) [3]
  Relative Vmax: 0.4
PDE (Peak I) [4]; 50 μg/ml calmodulin added
  Relative Vmax: 7.2
PDE (Peak I) [4]; without calmodulin
  Relative Vmax: 1.1
PDE (Peak I) [4]; in words
  affinity of PDE (Peak I) for substrate: high affinity
PDE (Peak II) [5]; PDE (Peak II)
  Relative Vmax: 0.2
PDE (Peak II) [5]; in words
  affinity of PDE (Peak II) for substrate: relatively low affinities

## CC1CC(=O)NN=C1c1ccc(-n2ccc(=O)cc2)cc1 (centres unmarked) [formula (2)]
[6]
  IC50: 0.08 ± 0.01 µM
[7]; Felis catus, read-out: ED50 (dose to increase left ventricular dp/dt max by 50%), anaesthetised cats pretreated with ganglion blocker and propranolol
  ED50: 0.04 µmol/kg
[7]; anaesthetised cats
  changes in blood pressure or heart rate: Minimal changes
PDE (Peak II) [8]
  inhibition of PDE (Peak II): either no or weak inhibition
[9]; Cavia porcellus, iv, read-out: ED50 (dose which reduced the histamine bronchoconstriction by 50%)
  ED50: 1.8 µmol/kg
[9]; Cavia porcellus, read-out: threshold dose
  minimal effective dose: 0.01 µmol/kg
[9]
  effect on histamine-induced bronchoconstriction: reduced the histamine-induced bronchoconstriction
PDE (Peak III) [1]; versus PDE (Peak I) and PDE (Peak II)
  selectivity for PDE (Peak III) / phosphodiesterase type III: selective phosphodiesterase type III inhibitor; also recorded: selective PDE (Peak III) inhibitor
PDE (Peak I) [10]
  inhibition of PDE (Peak I): no inhibition
[2]
  changes in blood pressure or heart rate: without changes
  force-rate selectivity: particularly beneficial
